Measured values as given in the supplement of paper PMC11061612.

Legend:
[1] = test system: SK-MM-2 (Plasma Cell Myeloma); assay: combination Emax (second highest fraction inhibited in the dose matrix, 72 h); higher = more inhibition; extreme values may be limits of the assay
Method in brief: (§1)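 Cell lines grown in DMEM/F12 or RPMI with 10% FBS were plated in 1536-well plates and held 24 hours at 37°C, 5% CO2 before 72 hours of exposure to two-drug dose matrices, with DMSO typically at 0.2%. CellTiter-Glo 2.0 luminescence gave viability, which was converted to inhibition. Vehicle wells were set to 0 and blank wells to 1. Combination Emax is the second-highest inhibition in the matrix, and Bliss excess is the observed combination effect minus the expected EA + EB − EA·EB, where EA and EB are the single-agent effects.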

[2] = test system: LOUCY (T-Lymphoblastic Leukemia); assay: as above
Method in brief: as §1

[3] = test system: SW684 (Other Solid Carcinomas); assay: as above
Method in brief: as §1

[4] = test system: NCI-H810 (Non-Small Cell Lung Carcinoma); assay: as above
Method in brief: as §1

[5] = test system: HCC-44 (Lung Adenocarcinoma); assay: as above
Method in brief: as §1

[6] = test system: KYM-1 (Rhabdomyosarcoma); assay: as above
Method in brief: as §1

[7] = test system: CML-T1 (Chronic Myelogenous Leukemia); assay: as above
Method in brief: as §1

[8] = test system: CHL-1 (Melanoma); assay: as above
Method in brief: as §1

[9] = test system: RMG-I (Ovarian Carcinoma); assay: as above
Method in brief: as §1

[10] = test system: COLO-684 (Endometrial Carcinoma); assay: as above
Method in brief: as §1

[11] = test system: LAMA-84 (Chronic Myelogenous Leukemia); assay: as above
Method in brief: as §1

[12] = test system: NCI-H1755 (Lung Adenocarcinoma); assay: as above
Method in brief: as §1

[13] = test system: FLO-1 (Esophageal Adenocarcinoma); assay: as above
Method in brief: as §1

[14] = test system: Becker (Low Grade Glioma); assay: as above
Method in brief: as §1

[15] = test system: EB-3 (Burkitt's Lymphoma); assay: as above
Method in brief: as §1

[16] = test system: KYSE-70 (Esophageal Squamous Cell Carcinoma); assay: as above
Method in brief: as §1

[17] = test system: NKM-1 (Acute Myeloid Leukemia); assay: as above
Method in brief: as §1

[18] = test system: PANC-02-03 (Pancreatic Carcinoma); assay: as above
Method in brief: as §1

[19] = test system: OV-90 (Ovarian Carcinoma); assay: as above
Method in brief: as §1

[20] = test system: PC-14 (Lung Adenocarcinoma); assay: as above
Method in brief: as §1

[21] = test system: SK-MM-2 (Plasma Cell Myeloma); assay: Bliss excess, mean over the matrix (fraction); higher = more synergy
Method in brief: as §1

[22] = test system: LOUCY (T-Lymphoblastic Leukemia); assay: as above
Method in brief: as §1

[23] = test system: SW684 (Other Solid Carcinomas); assay: as above
Method in brief: as §1

[24] = test system: NCI-H810 (Non-Small Cell Lung Carcinoma); assay: as above
Method in brief: as §1

[25] = test system: HCC-44 (Lung Adenocarcinoma); assay: as above
Method in brief: as §1

[26] = test system: KYM-1 (Rhabdomyosarcoma); assay: as above
Method in brief: as §1

[27] = test system: CML-T1 (Chronic Myelogenous Leukemia); assay: as above
Method in brief: as §1

[28] = test system: CHL-1 (Melanoma); assay: as above
Method in brief: as §1

[29] = test system: RMG-I (Ovarian Carcinoma); assay: as above
Method in brief: as §1

[30] = test system: COLO-684 (Endometrial Carcinoma); assay: as above
Method in brief: as §1

[31] = test system: LAMA-84 (Chronic Myelogenous Leukemia); assay: as above
Method in brief: as §1

[32] = test system: NCI-H1755 (Lung Adenocarcinoma); assay: as above
Method in brief: as §1

[33] = test system: FLO-1 (Esophageal Adenocarcinoma); assay: as above
Method in brief: as §1

[34] = test system: Becker (Low Grade Glioma); assay: as above
Method in brief: as §1

[35] = test system: EB-3 (Burkitt's Lymphoma); assay: as above
Method in brief: as §1

[36] = test system: KYSE-70 (Esophageal Squamous Cell Carcinoma); assay: as above
Method in brief: as §1

[37] = test system: NKM-1 (Acute Myeloid Leukemia); assay: as above
Method in brief: as §1

[38] = test system: PANC-02-03 (Pancreatic Carcinoma); assay: as above
Method in brief: as §1

[39] = test system: OV-90 (Ovarian Carcinoma); assay: as above
Method in brief: as §1

[40] = test system: PC-14 (Lung Adenocarcinoma); assay: as above
Method in brief: as §1
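Wherever Bliss excess, mean over the matrix is given: after 72 h of two-drug dosing.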

SMILES | combination Emax [1] | combination Emax [2] | combination Emax [3] | combination Emax [4] | combination Emax [5] | combination Emax [6] | combination Emax [7] | combination Emax [8] | combination Emax [9] | combination Emax [10] | combination Emax [11] | combination Emax [12] | combination Emax [13] | combination Emax [14] | combination Emax [15] | combination Emax [16] | combination Emax [17] | combination Emax [18] | combination Emax [19] | combination Emax [20] | Bliss excess [21] | Bliss excess [22] | Bliss excess [23] | Bliss excess [24] | Bliss excess [25] | Bliss excess [26] | Bliss excess [27] | Bliss excess [28] | Bliss excess [29] | Bliss excess [30] | Bliss excess [31] | Bliss excess [32] | Bliss excess [33] | Bliss excess [34] | Bliss excess [35] | Bliss excess [36] | Bliss excess [37] | Bliss excess [38] | Bliss excess [39] | Bliss excess [40]
C[C@@H]1COCCN1c1cc(C2([S@](C)(=N)=O)CC2)nc(-c2ccnc3[nH]ccc23)n1 [AZD6738] + Nc1ccn([C@@H]2O[C@H](CO)[C@@H](O)C2(F)F)c(=O)n1 [Gemcitabine] (first compound max 10 µM, 7x7, partner max 0.3 µM) | 0.572 | 1 | 0.559 | 0.794 | 0.844 | 1 | 1 | 0.902 | 0.48 | 0.733 | 0.976 | 0.812 | 0.949 | 0.808 | 0.847 | 0.504 | 1 | 0.579 | 0.573 | 0.869 | 0.114 | 0.0579 | 0.0693 | 0.0805 | 0.0963 | 0.0132 | 0.0987 | 0.0858 | -0.0514 | -0.0731 | 0.0674 | 0.0444 | 0.124 | 0.0762 | 0.007 | -0.0006 | -0.0345 | -0.0067 | -0.0129 | 0.0058
C[C@@H](Oc1cc(-c2cnn(C3CCNCC3)c2)cnc1N)c1c(Cl)ccc(F)c1Cl [Crizotinib] + Cn1cnc2c(F)c(Nc3ccc(Br)cc3Cl)c(C(=O)NOCCO)cc21 [Selumetinib] (first compound max 10 µM, 7x7, partner max 10 µM) | 0.377 | 0.724 | 0.39 | 0.212 | 0.916 | 0.92 | 0.957 | 0.0893 | 0.59 | 0.452 | 1 | 0.983 | 0.878 | 0.661 | 0.625 | 0.255 | 0.906 | 0.713 | 0.742 | 0.89 | -0.0442 | -0.0249 | -0.0262 | -0.123 | -0.0103 | -0.0202 | -0.0165 | -0.0464 | 0.0091 | -0.0629 | 0.0176 | -0.006 | 0.031 | 0.0409 | -0.0834 | -0.0364 | -0.0543 | -0.0458 | 0.0569 | -0.0183
Cc1c2c(nn1C)CSCc1cc(n(C)n1)CSc1cc(c3ccccc3c1)OCCCc1c(C(=O)O)n(C)c3c-2c(Cl)ccc13 [AZD5991] + CC(=O)O[C@H]1C(=O)[C@@]2(C)[C@H]([C@H](OC(=O)c3ccccc3)[C@]3(O)C[C@H](OC(=O)[C@H](O)[C@@H](NC(=O)c4ccccc4)c4ccccc4)C(C)=C1C3(C)C)[C@]1(OC(C)=O)CO[C@@H]1C[C@@H]2O [Paclitaxel] (first compound max 1 µM, 7x7, partner max 3 µM) | 0.34 | 0.898 | 0.52 | 0.871 | 0.83 | 1 | 0.954 | 1 | 0.322 | 0.558 | 0.895 | 0.734 | 0.928 | 0.982 | 0.685 | 0.534 | 1 | 0.427 | 0.379 | 0.947 | 0.0033 | -0.051 | -0.0818 | 0.125 | -0.0764 | 0.0663 | -0.0139 | 0.0482 | -0.0514 | 0.0057 | -0.0161 | -0.0385 | -0.0172 | 0.0068 | -0.0558 | 0.0855 | 0.0294 | -0.0131 | 0.0575 | -0.0298
